What was measured:
[1] = system: SK-MEL-2; assay: Growth inhibition of human SK-MEL-2 cells; format: functional
[2] = system: LOX IMVI; assay: Growth inhibition of human LOXIMVI cells; format: functional
[3] = system: T47D; assay: Growth inhibition of human T47D cells; format: functional
[4] = system: SNB-19; assay: Growth inhibition of human SNB19 cells; format: functional
[5] = system: Mus musculus; assay: Toxicity in mouse at 424 mg/kg, iv in split dose; format: organism-based; design: dose 424 mg/kg, route intravenous; conditions: in vivo
[6] = system: NCI-H322M; assay: Growth inhibition of human NCI-H322M cells; format: functional
[7] = system: NCI-H460; assay: Growth inhibition of human NCI-H460 cells; format: functional
[8] = system: IGROV-1; assay: Growth inhibition of human IGROV1 cells; format: functional
[9] = system: MDA-MB-435; assay: Growth inhibition of human MDA-MB-435 cells; format: functional
[10] = system: MDA-N; assay: Growth inhibition of human MDA-N cells; format: functional
[11] = system: M14; assay: Growth inhibition of human M14 cells; format: functional
[12] = Growth inhibition of human MCF7/ADR resistant cells; format: functional; conditions: NCI/ADR-RES
[13] = system: HOP-92; assay: Growth inhibition of human HOP92 cells; format: functional
[14] = system: SK-MEL-28; assay: Growth inhibition of human SK-MEL-28 cells; format: functional
[15] = system: A549; assay: Growth inhibition of human A549 cells; format: functional
[16] = system: HCC 2998; assay: Growth inhibition of human HCC2998 cells; format: functional
[17] = system: HCT-116; assay: Growth inhibition of human HCT116 cells; format: functional
[18] = system: KM12; assay: Growth inhibition of human KM12 cells; format: functional
[19] = system: SF-295; assay: Growth inhibition of human SF295 cells; format: functional
[20] = system: NCI-H23; assay: Growth inhibition of human NCI-H23 cells; format: functional
[21] = system: MDA-MB-231; assay: Growth inhibition of human MDA-MB-231 cells; format: functional
[22] = system: DU-145; assay: Growth inhibition of human DU145 cells; format: functional
[23] = system: OVCAR-4; assay: Growth inhibition of human OVCAR4 cells; format: functional
[24] = system: SK-OV-3; assay: Growth inhibition of human SKOV3 cells; format: functional
[25] = system: SK-MEL-5; assay: Growth inhibition of human SK-MEL-5 cells; format: functional
[26] = system: 786-0; assay: Growth inhibition of human 786-0 cells; format: functional
[27] = system: HT-29; assay: Growth inhibition of human HT-29 cells; format: functional
[28] = system: RXF 393; assay: Growth inhibition of human […] cells; format: functional
[29] = system: K562; assay: Growth inhibition of human K562 cells; format: functional
[30] = system: TK-10; assay: Growth inhibition of human TK10 cells; format: functional
[31] = system: COLO 205; assay: Growth inhibition of human COLO205 cells; format: functional
[32] = system: UO-31; assay: Growth inhibition of human UO31 cells; format: functional
[33] = system: NCI-H522; assay: Growth inhibition of human NCI-H522 cells; format: functional
[34] = system: SF-268; assay: Growth inhibition of human SF268 cells; format: functional
[35] = system: HCT-15; assay: Growth inhibition of human HCT15 cells; format: functional
[36] = system: ACHN; assay: Growth inhibition of human ACHN cells; format: functional
[37] = system: OVCAR-8; assay: Growth inhibition of human OVCAR8 cells; format: functional
[38] = system: MOLT-4; assay: Growth inhibition of human MOLT4 cells; format: functional
[39] = system: P388; assay: Growth inhibition of mouse P388 cells assessed as zone units at 50 ug/disk by disk diffusion agar colony formation assay; format: functional
[40] = system: CAKI-1; assay: Growth inhibition of human Caki1 cells; format: functional
[41] = system: U-251; assay: Growth inhibition of human U251 cells; format: functional
[42] = system: SF-539; assay: Growth inhibition of human SF539 cells; format: functional
[43] = system: SR; assay: Growth inhibition of human SR cells; format: functional
[44] = system: MCF7; assay: Growth inhibition of human MCF7 cells; format: functional
[45] = system: CCRF-CEM; assay: Growth inhibition of human CCRF-CEM cells; format: functional
[46] = Growth inhibition of mouse M17/ADR cells assessed as zone units at 50 ug/disk by disk diffusion agar colony formation assay; format: functional
[47] = system: SW-620; assay: Growth inhibition of human SW620 cells; format: functional
[48] = Growth inhibition of human Hs 578T cells; format: functional
[49] = system: BT-549; assay: Growth inhibition of human BT549 cells; format: functional
[50] = system: SN12C; assay: Growth inhibition of human SN12C cells; format: functional
[51] = system: PC-3; assay: Growth inhibition of human PC3 cells; format: functional
[52] = system: UACC-257; assay: Growth inhibition of human UACC257 cells; format: functional
[53] = system: OVCAR-5; assay: Growth inhibition of human OVCAR5 cells; format: functional
[54] = system: EKVX; assay: Growth inhibition of human EKVX cells; format: functional
[55] = system: CX-1; assay: Growth inhibition of human CX-1 cells assessed as zone units at 50 ug/disk by disk diffusion agar colony formation assay; format: functional
[56] = system: UACC-62; assay: Growth inhibition of human UACC62 cells; format: functional
[57] = system: HOP-62; assay: Growth inhibition of human HOP62 cells; format: functional
[58] = system: L1210; assay: Growth inhibition of mouse L1210 cells assessed as zone units at 50 ug/disk by disk diffusion agar colony formation assay; format: functional
[59] = system: Malme-3M; assay: Growth inhibition of human MALME-3M cells; format: functional
[60] = system: MC-38; assay: Growth inhibition of mouse C38 cells assessed as zone units at 50 ug/disk by disk diffusion agar colony formation assay; format: functional
[61] = system: SNB-75; assay: Growth inhibition of human SNB75 cells; format: functional
[62] = system: OVCAR-3; assay: Growth inhibition of human OVCAR-3 cells; format: functional
[63] = system: HL-60(TB); assay: Growth inhibition of human HL-60(TB) cells; format: functional
[64] = Growth inhibition of human […] cells; format: functional

Compound: COC(=O)[C@H](C)[C@H]1CC[C@@](C)(CCC2=C(C)CCCC2(C)C)OO1 [NUAPAPUIN A METHYL ESTER]
- GI50 [1]: > 25 µM
- GI50 [2]: > 5 µM
- GI50 [3]: > 25 µM
- GI50 [4]: > 25 µM
- Activity [5]: Non-toxic
- GI50 [6]: > 25 µM
- GI50 [7]: > 25 µM
- GI50 [8]: > 5 µM
- GI50 [9]: > 25 µM
- GI50 [10]: > 25 µM
- GI50 [11]: > 25 µM
- GI50 [12]: > 25 µM
- GI50 [13]: > 25 µM
- GI50 [14]: > 25 µM
- GI50 [15]: > 5 µM
- GI50 [16]: > 25 µM
- GI50 [17]: > 25 µM
- GI50 [18]: > 5 µM
- GI50 [19]: > 25 µM
- GI50 [20]: > 25 µM
- GI50 [21]: > 25 µM
- GI50 [22]: > 25 µM
- GI50 [23]: > 25 µM
- GI50 [24]: > 25 µM
- GI50 [25]: > 25 µM
- GI50 [26]: > 25 µM
- GI50 [27]: > 25 µM
- GI50 [28]: > 25 µM
- GI50 [29]: 14.3 µM
- GI50 [30]: > 25 µM
- GI50 [31]: > 25 µM
- GI50 [32]: > 23.7 µM
- GI50 [33]: > 16.1 µM
- GI50 [34]: > 25 µM
- GI50 [35]: > 25 µM
- GI50 [36]: 25 µM
- GI50 [37]: > 25 µM
- GI50 [38]: > 5 µM
- Activity [39]: 400 Zone units
- GI50 [40]: > 25 µM
- GI50 [41]: > 25 µM
- GI50 [42]: > 25 µM
- GI50 [43]: > 25 µM
- GI50 [44]: > 25 µM
- GI50 [45]: 19.4 µM
- Activity [46]: 400 Zone units
- GI50 [47]: > 25 µM
- GI50 [48]: > 25 µM
- GI50 [49]: > 5 µM
- GI50 [50]: > 25 µM
- GI50 [51]: > 25 µM
- GI50 [52]: > 25 µM
- GI50 [53]: > 25 µM
- GI50 [54]: > 25 µM
- Activity [55]: 310 Zone units
- GI50 [56]: > 25 µM
- GI50 [57]: > 25 µM
- Activity [58]: 400 Zone units
- GI50 [59]: > 25 µM
- Activity [60]: 700 Zone units
- GI50 [61]: > 25 µM
- GI50 [62]: > 25 µM
- GI50 [63]: > 5 µM
- GI50 [64]: > 25 µM
